Measurements published in patent US20260034135A1, “USE OF N6-BENZYLAMINOPURINE AS AN APPETITE SUPPRESSANT” (THE GOVERNING COUNCIL OF THE UNIVERSITY OF TORONTO, priority 2022, published 2026).

Assay: BAP in a honey emulsion fed to CD-1 mice: body weight, food and water intake
Type: in vivo
Description: Male and female CD-1 mice were received at age 6-7 weeks and were acclimated on a chow diet for one week prior to experimentation. After acclimation to the facility, mice were switched to a 60% HFD. The male and female mice received HFD for 4 (male) and 5 or 16 (female) weeks prior to BAP exposure. The mice were then acclimated to the emulsion feeding protocol for 4 days prior to the start of BAP exposure using the method described in Kuster et al. (12). Two days prior to the start of the exposure period, a cohort of male mice underwent acute general anesthetic with isoflurane for baseline Bruker scanning to quantify peripheral fat mass. The mice were then weight-matched and randomly assigned to either the control or BAP group. During the exposure period, mice were restrained via scruffing (held at back of neck) and fed 200 μL of an emulsion containing 0.5% carboxymethyl cellulose and 50% honey with or without BAP at 2 hr prior to lights off at the facility daily.
[…] All mice were kept on the 60% HFD throughout the exposure period. […] On day 12, the one cohort of male mice underwent general anesthetic for the purpose of post-experiment Bruker scanning. The male mice were then fed their assigned emulsion 2 hr prior to sacrificing and tissue collection. […] Hypothalamic collected from the mice were then used to isolate RNA and quantify gene expression using quantitative reverse transcription polymerase chain reaction (qRT-PCR).

[1] = male CD-1, 60% HFD, 300 mg/kg/day BAP emulsion, 11 days, cohort CCBR
[2] = male CD-1, 60% HFD, 300 mg/kg/day BAP emulsion, 14 days, cohort BSF
[3] = male CD-1, 60% HFD, 300 mg/kg/day BAP emulsion, 28 days, cohort BSF

In the case of `c1ccc(CNc2ncnc3nc[nH]c23)cc1` [BAP, N6-benzylaminopurine], the “body weight gain on HFD” value (female CD-1, 16 weeks 60% HFD then 300 mg/kg/day BAP emulsion 36 days, cohort BSF) is reported as “did not gain weight”, the “food intake vs control” value (female CD-1, 60% HFD, 300 mg/kg/day BAP emulsion 36 days, cohort BSF) is reported as “did not eat significantly less HFD” and the “body weight change vs control” value (male CD-1, 60% HFD, 75 mg/kg/day BAP emulsion, 14 days) is reported as “no change”. The “body weight gain on HFD” value (male CD-1, 60% HFD, 150 mg/kg/day BAP emulsion, 14 days, cohort BSF) was “did not gain weight”, the body weight loss [1] was 5% and the “reduction in HFD food intake vs control group over the exposure period” value [1] was 22%. For the same molecule, the body weight loss [2] was 1.3%, the “daily average food intake vs control” value [2] was “did not eat significantly less HFD” and the body weight loss (male CD-1, 60% HFD, 300 mg/kg/day BAP emulsion, 14 days, dose study, cohort BSF) was 1.1%. For the same molecule, the food intake (male CD-1, 60% HFD, 300 mg/kg/day BAP emulsion, 14 days, dose study, significant by unpaired t-test at 8 days onward) was “trend towards a decrease in food intake that did not reach significance”, the body weight loss [3] was 5% and the “reduction in daily average food intake vs control” value [3] was 13%. For the same molecule, the “cumulative daily food intake” value (male CD-1, 60% HFD, 75, 150, 300 mg/kg BAP emulsion, 14 days) was “do not have significant changes in food intake”.
